# Laboratory results from PMC10328743, “5-Nitro-3-(2-(4-phenylthiazol-2-yl)hydrazineylidene)indolin-2-one derivatives inhibit HIV-1 replication by a multitarget mechanism of action” (Frontiers in Cellular and Infection Microbiology, 2023).
# Where two headings read alike, the source gives them in different places.
# Legend:
# [1] = molecular target: T1, HIV-1 IN-IN subunit exchange (Human immunodeficiency virus type 1 group M subtype B, UniProt P12497); assay: HTRF-based IN subunit exchange assay; type: binding
# T1 construct: Preparation of recombinant full-length IN and LEDGF proteins; made in house; host or cells: E. coli BL21(DE3)
# Experimental: (§1) Proteins were expressed in E. coli BL21(DE3). Briefly, His-IN was purified by loading the precipitate of cell lysate onto a Ni-Sepharose column and eluting with a […] imidazole gradient (0–500 mM) in a HEPES buffer (50 mM, pH 7.5) containing NaCl (1 M), CHAPS (7.5 mM), and β-mercaptoethanol (2 mM). FLAG-IN was purified by loading the precipitate of cell lysate onto a phenyl-sepharose and ammonium sulfate gradient (0–800 mM) in a HEPES (pH 7.5, 50 mM) buffer containing NaCl (200 mM), CHAPS (7.5 mM), and β-mercaptoethanol (2 mM). Peak fractions were pooled, loaded onto a heparin column, and eluted with an increasing NaCl gradient (200 mM to 1 M) in a HEPES (pH 7.5, 50 mM) buffer containing CHAPS (7.5 mm) and β-mercaptoethanol (2 mM). Fractions containing integrase were pooled and stored in glycerol (10%) at −80°C.
# His and FLAG-tagged INs were mixed in Tris (pH 7.4, 25 mm) buffer containing NaCl (150 mm), MgCl2 (2 mM), Nonidet P-40 (0.1%), and BSA (1 mg/ml). Test compounds were then added to the mixture, and incubation was carried out for 2.5 h at room temperature.
# [2] = molecular target: T2, HIV-1 IN (LEDGF/p75-dependent) (Human immunodeficiency virus type 1 group M subtype B, UniProt P12497); assay: biochemical; type: biochemical; details: strand-transfer activity in the presence of LEDGF/p75; read-out: IC50 IN LEDGF-dependent integration
# T2 construct: Preparation of recombinant full-length IN and LEDGF proteins; made in house; host or cells: E. coli BL21(DE3)
# Experimental: as §1
# (§2) Briefly, IN (50 nM) was preincubated with increasing concentrations of compounds for 1 h at room temperature in a reaction buffer containing HEPES (20 mM, pH 7.5), DTT (1 mM), glycerol (1%), MgCl2 (20 mM), Brij-35 (0.05%), and bovine serum albumin (BSA) (0.1 mg/ml).
# [3] = Viability of infected MT4 cells (cytotoxicity); type: cell-based; details: human, MT4 cells infected with HIV-1; infected MT4 cells viability; three independent experiments, average ± standard deviation
# Experimental: (§3) HIV-1 replication was carried out in MT4 cells as previously reported ([Corona et al., 2016a]) using a molecular clone derived from the pNL4-3 ([Thierry et al., 2015]). A total of 120 ng of p24^gag antigen per 10^6 cells, corresponding to a multiplicity of infection (m.o.i.) of 0.3, was used for infection. […] Flow cytometry analysis was performed on a FACSCalibur flow cytometer (BD Biosciences, San Jose, CA, USA), and the results were analyzed using the […] software.
# MT4 cells [4] = assay: Viability of infected MT4 cells (cytotoxicity); type: cell-based; details: no toxicity up to the highest concentration tested
# Experimental: as §3
# HIV-1 [5] = assay: HIV-1 replication inhibition in MT4 cells; type: cell-based; details: three independent experiments, average ± standard deviation, read-out: HIV-1 EC50
# Experimental: as §3
# HIV-1 RT-associated RDDP = molecular target: T3, HIV-1 RT-associated RDDP (Human immunodeficiency virus type 1 group M subtype B, UniProt P04585); assay: HIV-1 RNA-dependent DNA polymerase activity determination; type: biochemical; details: wt HIV-1 RT; three independent experiments, average ± standard deviation; read-out: RDDP IC50
# T3 construct: The 1:1 ratio between the p66/p51 subunits was also verified; His tag (implied only by Ni-NTA IMAC purification); made in house; host or cells: Escherichia coli M15
# Experimental: (§4) Escherichia coli strain M15 containing the p6HRT-prot vector (provided by Stuart Le Grice laboratory (NCI Frederick)) was grown to an optical density at 600 nm of 0.7 and induced with 1.7 mM of isopropyl β-D-1-thiogalactopyranoside (IPTG) for 4 h. Protein purification was carried out with a BioLogic LP system (Bio-Rad, Hercules, CA, USA) using a combination of immobilized metal affinity chromatography (IMAC) and ion exchange chromatography. Cell pellets were resuspended in lysis buffer (50 mM of sodium phosphate buffer, pH 7.8, containing 0.5 mg/mL of lysozyme), incubated on ice for 20 min, and, after the addition of NaCl to a final concentration of 0.3 M, were sonicated and centrifuged at 30,000 ×g for 1 h. The supernatant was loaded onto a Ni^2+-NTA-Sepharose column pre-equilibrated with loading buffer (50 mM of sodium phosphate buffer, pH 7.8, containing 0.3 M of NaCl, 10% glycerol, and 10 mM of imidazole) and washed thoroughly with wash buffer (50 mM of sodium phosphate buffer, pH 6.0, containing 0.3 M of NaCl, 10% glycerol, and 80 mM of imidazole). RT was eluted with an imidazole gradient in the wash buffer (0–0.5 M). Fractions were collected, and protein purity was checked by sodium dodecyl sulfate–polyacrylamide gel electrophoresis (SDS-PAGE) and found to be higher than 90%. The 1:1 ratio between the p66/p51 subunits was also verified. Enzyme-containing fractions were pooled and diluted 1:1 with 50 mM of sodium phosphate buffer, pH 7.0, containing 10% glycerol, and then loaded into a Hi-trap heparin HP GE (Healthcare LifeScience) pre-equilibrated with 10 column volumes of loading buffer (50 mM of sodium phosphate buffer, pH 7.0, containing 10% glycerol, and 150 mM of NaCl). The column was then washed with loading buffer, and the RT was eluted with Elute Buffer 2 (50 mM of sodium phosphate, pH 7.0, 10% glycerol, 1 M of NaCl). Fractions were collected, and the protein was dialyzed and stored in a buffer containing 50 mM of Tris-HCl, pH 7.0, 25 mM of NaCl, 1 mM of EDTA, and 50% glycerol. Catalytic activities and protein concentrations were determined. Enzyme-containing fractions were pooled, and aliquots were stored at −80°C.
# (§5) RDDP activity was measured as previously reported in 25-µl volume containing 60 mM of Tris‐HCl buffer, pH 8.1, 8 mM of MgCl2, 60 mM of KCl, 13 mM of DTT, 2.5 µM of poly(A)-oligo(dT), 100 µM of dTTP, increasing concentrations of inhibitors, whose dilution were made in water, and different amounts of enzymes according to a linear range of the dose–response curve. The reaction mixture was incubated for 30 min at 37°C and then stopped by the addition of EDTA. Reaction products were detected by pico green addition and measured with a multilabel counter plate reader Victor 3, equipped with filters for 502/523 nm.
# [6] = molecular target: T4, HIV-1 IN (LEDGF-independent) (Human immunodeficiency virus type 1 group M subtype B, UniProt P12497); assay: biochemical; details: strand-transfer activity with omission of LEDGF/p75; read-out: IC50 IN LEDGF-independent integration
# T4 construct: Preparation of recombinant full-length IN and LEDGF proteins; made in house; host or cells: E. coli BL21(DE3)
# Experimental: as §1, §2
# HIV-1 IN-LEDGF binding = molecular target: T5, HIV-1 IN-LEDGF binding (Human immunodeficiency virus type 1 group M subtype B, UniProt P12497); assay: biochemical
# T5 construct: Preparation of recombinant full-length IN and LEDGF proteins; made in house; host or cells: E. coli BL21(DE3)
# Experimental: as §1
# Briefly, His-IN was preincubated with different concentrations of a compound in a buffer containing NaCl (150 mm), MgCl2 (2 mM), Nonidet P-40 (0.1%), BSA (1 mg/ml), and Tris (pH 7.4, 25 mm) for 30 min at room temperature. Then, FLAG-LEDGF was added to the reaction mixture, and a mixture of anti-His6-XL665 and anti-FLAG-EuCryptate antibodies was added.
# [7] = molecular target: T6, HIV-1 RT-associated RNase H (Human immunodeficiency virus type 1 group M subtype B, UniProt P04585); assay: HIV-1 DNA polymerase-independent RNase H activity determination; type: biochemical; details: wt HIV-1 RT; three independent experiments, average ± standard deviation; read-out: RNase H IC50
# T6 construct: The 1:1 ratio between the p66/p51 subunits was also verified; His tag (implied only by Ni-NTA IMAC purification); made in house; host or cells: Escherichia coli M15
# Experimental: as §4
# HIV RT-associated RNase H activity was measured as described ([Corona et al., 2016b]) in a 100-µl reaction volume containing 50 mM of Tris-HCl buffer, pH 7.8, 6 mM of MgCl2, 1 mM of dithiothreitol (DTT), 80 mM of KCl, 0.25 µM of hybrid RNA/DNA 5′-[…]-Fluorescin-3′ (high-performance liquid chromatography (HPLC), dry, QC: Mass Check) (available from Metabion) 5′-Dabcyl-[…]-3′ (HPLC, dry, QC: Mass Check), increasing concentrations of inhibitors, whose dilution were made in water, and different amounts of enzymes according to a linear range of the dose–response curve. The reaction mixture was incubated for 1 h at 37°C and stopped by the addition of EDTA, and products were measured with a multilabel counter plate reader Victor 3 equipped with filters for 490/528 nm.
# HIV-1 RT K103N (RDDP) = assay: RDDP activity of K103N HIV-1 RT; type: biochemical
# Experimental: (§6) K103N, Y181C, and Y188L mutations were introduced into the p6HRT-prot vector using the QuikChange protocol (Agilent Technologies, Santa Clara, CA, USA). Enzymes were expressed and purified as the wt-HIV-1 RT.
# as §5
# HIV-1 RT Y188L (RDDP) = assay: RDDP activity of Y188L HIV-1 RT; type: biochemical
# Experimental: as §6, §5
# HIV-1 RT Y181C (RDDP) = assay: RDDP activity of Y181C HIV-1 RT; type: biochemical
# Experimental: as §6, §5
# MT4 cells [8] = details: cited from earlier work
# HIV-1 [9] = details: read-out: HIV-1 EC50; viral replication in MT4 cells; ref Corona et al. (2014a); cited from earlier work
# [10] = Human immunodeficiency virus 1, MT4, viral replication in MT4 cells
SMILES,IC50 [1],IC50 [2],CC50 [3],toxicity against MT4 cells (MT4 cells [4]),EC50 (HIV-1 [5]; [10]),EC50 (HIV-1 [5]; viral replication in MT4 cells),IC50 (HIV-1 RT-associated RDDP),IC50 [6],IC50 (HIV-1 IN-LEDGF binding),IC50 [7],"increase in IC50 vs wt RT, RDDP activity (HIV-1 RT K103N (RDDP))","increase in IC50 vs wt RT, RDDP activity (HIV-1 RT Y188L (RDDP))","increase in IC50 vs wt RT, RDDP activity (HIV-1 RT Y181C (RDDP))","CC50 (MT4 cells [8]; read-out: MT4 CC50, MT4 cells viability, ref Corona et al. (2014a))",EC50 (HIV-1 [9]),CC50 (MT4 cells [8])
O=C1Nc2ccc([N+](=O)[O-])cc2/C1=N/Nc1nc(-c2ccc(Cl)cc2)cs1 [1a],22.8 ± 2.6 µM,22.4 ± 4.65 µM,> 100 µM,> 100 µM,< 20 µM,25 ± 2.1 µM,10 ± 0.5 µM,100 µM,> 100 µM,4.6 ± 1.4 µM,,,,,,
O=C1Nc2ccc([N+](=O)[O-])cc2/C1=N/Nc1nc(-c2ccc(Br)cc2)cs1 [3a],18.5 ± 3.5 µM,15.5 ± 3 µM,> 100 µM,> 100 µM,< 20 µM,32 ± 3.2 µM,8.5 ± 0.5 µM,73.5 ± 13.5 µM,> 100 µM,4.3 ± 0.7 µM,,,,,,
"O=C1Nc2ccc(Cl)cc2[C@@](C#CC2CC2)(C(F)(F)F)O1 [EFV, efavirenz]",,,,,,,,,,,9.1 fold,14 fold,3.5 fold,> 0.31 µM,,
CCOC(=O)C(=O)CC(=O)/C=C/c1cccn1Cc1ccccc1Cl [RDS1759],,,,,,,,,,,,,,,2.1 µM,> 50 µM
"N#Cc1ccc(-c2csc(NN=C3C(=O)Nc4ccccc43)n2)cc1 [RMNC6, reference compound]",> 100 µM,> 100 µM,,,,,,> 100 µM,> 100 µM,,,,,,,
